According to patent publication US10588317B2, “Isoxazoline-substituted benzamides and analogues as insecticides” (priority 2015, dated 2020):
Like-named read-outs stand apart in the source and are kept apart here.

Experiments:
Type in all cases: in vivo
Tetranychus urticae = Tetranychus urticae (two-spotted spider mite): feeding/contact activity; conditions: 192 h
Procedure: Bean leaf discs on agar in 24-well microtiter plates were sprayed with aqueous test solutions prepared from 10'000 ppm DMSO stock solutions. After drying the leaf discs were infested with a mite population of mixed ages. The samples were assessed for mortality on mixed population (mobile stages) 8 days after infestation.

Diabrotica balteata = Diabrotica balteata (corn root worm), sprayed maize sprouts; conditions: 96 h, read-out: effect in at least one of the two categories (mortality or growth inhibition); for percent effect (mortality or growth inhibition) at 200 ppm: application rate 200 ppm, L2 larvae, 4 days after infestation
Outline: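 Read-out at 4 days post-infestation: mortality and growth inhibition relative to untreated samples. Test solutions (200 ppm, from DMSO stocks) were sprayed onto agar-held maize sprouts, which after drying received 6–10 L2 larvae per well.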

Spodoptera littoralis = Spodoptera littoralis (Egyptian cotton leaf worm), sprayed cotton leaf discs; conditions: foliar, 72 h, read-out: control (mortality, anti-feeding effect, growth inhibition)
Outline: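 Five first-instar larvae placed on dried cotton leaf discs (on agar) previously sprayed with aqueous dilutions of 10'000 ppm DMSO stocks. Scored at 3 days against untreated discs for mortality, feeding inhibition and growth inhibition; any category above untreated counts as control.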

Thrips tabaci = Thrips tabaci (onion thrips): feeding/contact activity; conditions: 144 h
Procedure: Sunflower leaf discs were placed on agar in 24-well microtiter plates and sprayed with aqueous test solutions prepared from 10'000 ppm DMSO stock solutions. After drying the leaf discs were infested with a Thrips population of mixed ages. The samples were assessed for mortality 6 days after infestation.

Plutella xylostella = Plutella xylostella (diamond back moth), artificial diet; conditions: 120 h, read-out: effect in at least one of the two categories (mortality or growth inhibition); for percent effect (mortality or growth inhibition) at 200 ppm: application rate 200 ppm, L2 larvae, 5 days after infestation
Outline: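 L2 larvae (10-15 per well) fed on compound-treated, dried artificial diet; test solutions diluted in water from 10'000 ppm DMSO stocks. Readout 5 days post-infestation as mortality or growth inhibition versus untreated diet, with at least 80% effect at 200 ppm as threshold.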

Myzus persicae = Myzus persicae (green peach aphid): feeding/contact activity; conditions: 144 h
Procedure: Sunflower leaf discs were placed onto agar in a 24-well microtiter plate and sprayed with aqueous test solutions prepared from 10'000 ppm DMSO stock solutions. After drying, the leaf discs were infested with an aphid population of mixed ages. The samples were assessed for mortality 6 days after infestation.

Euschistus heros = Euschistus heros (neotropical brown stink bug), sprayed soybean leaves; conditions: 120 h, read-out: effect in at least one of the two categories (mortality or growth inhibition); for percent effect (mortality or growth inhibition) at 200 ppm: application rate 200 ppm, N2 nymphs, 5 days after infestation
Outline: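 Scored 5 days post-infestation versus untreated controls, for both mortality and growth inhibition: N2 nymphs placed on agar-mounted soybean leaves previously sprayed at 200 ppm with aqueous test solutions from DMSO stocks and left to dry.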

[1] = application rate 200 ppm, mixed population (mobile stages), 8 days after infestation, read-out: mortality
[2] = application rate 200 ppm, L1 larvae, 3 days after infestation
[3] = application rate 200 ppm, Thrips population of mixed ages, 6 days after infestation, read-out: mortality
[4] = application rate 200 ppm, aphid population of mixed ages, 6 days after infestation, read-out: mortality

Cc1cc(C2=NO[C@@](c3cc(Cl)c(Cl)c(Cl)c3)(C(F)(F)F)C2)ccc1C(=O)N[C@H]1CON(S(=O)(=O)C(F)F)C1 [Compound A231, N-[(4R)-2-(difluoromethylsulfonyl)-1,2-oxazolidin-4-yl]-2-methyl-4-[(5S)-5-(3,4,5-trichlorophenyl)-5-(trifluoromethyl)-4H-1,2-oxazol-3-yl]benzamide]
≥ 80%: mortality at 200 ppm (Tetranychus urticae; [1]) | percent effect (mortality or growth inhibition) at 200 ppm (Diabrotica balteata) | mortality at 200 ppm (Spodoptera littoralis; [2]) | mortality at 200 ppm (Thrips tabaci; [3]) | percent effect (mortality or growth inhibition) at 200 ppm (Plutella xylostella) | mortality at 200 ppm (Myzus persicae; [4]) | percent effect (mortality or growth inhibition) at 200 ppm (Euschistus heros)

Cc1cc(C2=NO[C@@](c3cc(Cl)cc(Cl)c3)(C(F)(F)F)C2)ccc1C(=O)N[C@@H]1CON(S(=O)(=O)CC(=O)O)C1 [Compound A174, 2-[[(4S)-4-[[4-[(5S)-5-(3,5-dichlorophenyl)-5-(trifluoromethyl)-4H-1,2-oxazol-3-yl]-2-methylbenzoyl]amino]-1,2-oxazolidin-2-yl]sulfonyl]acetic acid]
≥ 80%: mortality at 200 ppm (Tetranychus urticae; [1]) | percent effect (mortality or growth inhibition) at 200 ppm (Diabrotica balteata) | mortality at 200 ppm (Spodoptera littoralis; [2]) | mortality at 200 ppm (Thrips tabaci; [3]) | percent effect (mortality or growth inhibition) at 200 ppm (Plutella xylostella) | mortality at 200 ppm (Myzus persicae; [4]) | percent effect (mortality or growth inhibition) at 200 ppm (Euschistus heros)

CC(=O)N(C)S(=O)(=O)N1CC(NC(=O)c2ccc(C3=NO[C@@](c4cc(Cl)c(F)c(Cl)c4)(C(F)(F)F)C3)cc2C)CO1 (stereo partly shown) [Compound A162]
≥ 80%: mortality at 200 ppm (Tetranychus urticae; [1]) | percent effect (mortality or growth inhibition) at 200 ppm (Diabrotica balteata) | mortality at 200 ppm (Spodoptera littoralis; [2]) | mortality at 200 ppm (Thrips tabaci; [3]) | percent effect (mortality or growth inhibition) at 200 ppm (Plutella xylostella) | mortality at 200 ppm (Myzus persicae; [4]) | percent effect (mortality or growth inhibition) at 200 ppm (Euschistus heros)

Cc1cc(C2=NO[C@](c3cc(Cl)c(Cl)c(Cl)c3)(C(F)(F)F)C2)ccc1C(=O)N[C@H]1CON(S(=O)(=O)CF)C1 [Compound A216, N-[(4R)-2-(fluoromethylsulfonyl)-1,2-oxazolidin-4-yl]-2-methyl-4-[(5R)-5-(3,4,5-trichlorophenyl)-5-(trifluoromethyl)-4H-1,2-oxazol-3-yl]benzamide]
≥ 80%: mortality at 200 ppm (Tetranychus urticae; [1]) | percent effect (mortality or growth inhibition) at 200 ppm (Diabrotica balteata) | mortality at 200 ppm (Spodoptera littoralis; [2]) | mortality at 200 ppm (Thrips tabaci; [3]) | percent effect (mortality or growth inhibition) at 200 ppm (Plutella xylostella) | mortality at 200 ppm (Myzus persicae; [4]) | percent effect (mortality or growth inhibition) at 200 ppm (Euschistus heros)

Cc1cc(C2=NO[C@@](c3cc(Cl)cc(Cl)c3)(C(F)(F)F)C2)ccc1C(=O)N[C@@H]1CON(S(=O)(=O)CBr)C1 [Compound A173, N-[(4S)-2-(bromomethylsulfonyl)-1,2-oxazolidin-4-yl]-4-[(5S)-5-(3,5-dichlorophenyl)-5-(trifluoromethyl)-4H-1,2-oxazol-3-yl]-2-methylbenzamide]
≥ 80%: mortality at 200 ppm (Tetranychus urticae; [1]) | percent effect (mortality or growth inhibition) at 200 ppm (Diabrotica balteata) | mortality at 200 ppm (Spodoptera littoralis; [2]) | mortality at 200 ppm (Thrips tabaci; [3]) | percent effect (mortality or growth inhibition) at 200 ppm (Plutella xylostella) | mortality at 200 ppm (Myzus persicae; [4]) | percent effect (mortality or growth inhibition) at 200 ppm (Euschistus heros)

Cc1cc(C2=NO[C@@](c3cc(Cl)c(C(F)F)c(Cl)c3)(C(F)(F)F)C2)ccc1C(=O)N[C@@H]1CON(S(=O)(=O)N(C)C)C1 [Compound A196, 4-[(5S)-5-[3,5-dichloro-4-(difluoromethyl)phenyl]-5-(trifluoromethyl)-4H-1,2-oxazol-3-yl]-N-[(4S)-2-(dimethylsulfamoyl)-1,2-oxazolidin-4-yl]-2-methylbenzamide]
≥ 80%: mortality at 200 ppm (Tetranychus urticae; [1]) | percent effect (mortality or growth inhibition) at 200 ppm (Diabrotica balteata) | mortality at 200 ppm (Spodoptera littoralis; [2]) | mortality at 200 ppm (Thrips tabaci; [3]) | percent effect (mortality or growth inhibition) at 200 ppm (Plutella xylostella) | mortality at 200 ppm (Myzus persicae; [4]) | percent effect (mortality or growth inhibition) at 200 ppm (Euschistus heros)

Cc1cc(C2=NO[C@@](c3cc(Cl)cc(Cl)c3)(C(F)(F)F)C2)ccc1C(=O)N[C@H]1CON(S(=O)(=O)F)C1 [Compound A198, (4R)-4-[[4-[(5S)-5-(3,5-dichlorophenyl)-5-(trifluoromethyl)-4H-isoxazol-3-yl]-2-methyl-benzoyl]amino]isoxazolidine-2-sulfonyl fluoride]
≥ 80%: mortality at 200 ppm (Tetranychus urticae) | percent control (mortality or growth inhibition) at 200 ppm (Diabrotica balteata) | mortality at 200 ppm (Spodoptera littoralis) | mortality at 200 ppm (Thrips tabaci) | percent control (mortality or growth inhibition) at 200 ppm (Plutella xylostella) | mortality at 200 ppm (Myzus persicae) | percent control (mortality or growth inhibition) at 200 ppm (Euschistus heros)

Cc1cc(C2=NO[C@@](c3cc(F)cc(C(F)(F)F)c3)(C(F)(F)F)C2)ccc1C(=O)N[C@@H]1CON(S(C)(=O)=O)C1 [Compound A172]
≥ 80%: mortality at 200 ppm (Tetranychus urticae; [1]) | percent effect (mortality or growth inhibition) at 200 ppm (Diabrotica balteata) | mortality at 200 ppm (Spodoptera littoralis; [2]) | mortality at 200 ppm (Thrips tabaci; [3]) | percent effect (mortality or growth inhibition) at 200 ppm (Plutella xylostella) | mortality at 200 ppm (Myzus persicae; [4]) | percent effect (mortality or growth inhibition) at 200 ppm (Euschistus heros)

Cc1cc(C2=NO[C@](c3cc(Cl)c(F)c(Cl)c3)(C(F)(F)F)C2)ccc1C(=O)N[C@H]1CON(S(=O)(=O)NC2(C#N)CC2)C1 [Compound A168]
≥ 80%: mortality at 200 ppm (Tetranychus urticae; [1]) | percent effect (mortality or growth inhibition) at 200 ppm (Diabrotica balteata) | mortality at 200 ppm (Spodoptera littoralis; [2]) | mortality at 200 ppm (Thrips tabaci; [3]) | percent effect (mortality or growth inhibition) at 200 ppm (Plutella xylostella) | mortality at 200 ppm (Myzus persicae; [4]) | percent effect (mortality or growth inhibition) at 200 ppm (Euschistus heros)

CCN(C)S(=O)(=O)N1C[C@@H](NC(=O)c2ccc(C3=NO[C@@](c4cc(Cl)cc(Cl)c4)(C(F)(F)F)C3)cc2Cl)CO1 [Compound A129, 2-chloro-4-[(5S)-5-(3,5-dichlorophenyl)-5-(trifluoromethyl)-4H-isoxazol-3-yl]-N-[(4R)-2-[ethyl(methyl)sulfamoyl]isoxazolidin-4-yl]benzamide]
≥ 80%: mortality at 200 ppm (Tetranychus urticae; [1]) | percent effect (mortality or growth inhibition) at 200 ppm (Diabrotica balteata) | mortality at 200 ppm (Spodoptera littoralis; [2]) | mortality at 200 ppm (Thrips tabaci; [3]) | percent effect (mortality or growth inhibition) at 200 ppm (Plutella xylostella) | mortality at 200 ppm (Myzus persicae; [4]) | percent effect (mortality or growth inhibition) at 200 ppm (Euschistus heros)

Cc1cc(C2=NO[C@](c3cc(Cl)cc(C(F)F)c3)(C(F)(F)F)C2)ccc1C(=O)N[C@H]1CON(S(C)(=O)=O)C1 [Compound A185]
≥ 80%: mortality at 200 ppm (Tetranychus urticae; [1]) | percent effect (mortality or growth inhibition) at 200 ppm (Diabrotica balteata) | mortality at 200 ppm (Spodoptera littoralis; [2]) | mortality at 200 ppm (Thrips tabaci; [3]) | percent effect (mortality or growth inhibition) at 200 ppm (Plutella xylostella) | mortality at 200 ppm (Myzus persicae; [4]) | percent effect (mortality or growth inhibition) at 200 ppm (Euschistus heros)

Cc1cc(C2=NO[C@@](c3cc(Cl)c(F)c(Cl)c3)(C(F)(F)F)C2)ccc1C(=O)NC1CON(S(=O)(=O)N2CCCC2)C1 (stereo partly drawn) [Compound A99, 4-[(5S)-5-(3,5-dichloro-4-fluoro-phenyl)-5-(trifluoromethyl)-4H-isoxazol-3-yl]-2-methyl-N-(2-pyrrolidin-1-ylsulfonylisoxazolidin-4-yl)benzamide]
≥ 80%: mortality at 200 ppm (Tetranychus urticae; [1]) | percent effect (mortality or growth inhibition) at 200 ppm (Diabrotica balteata) | mortality at 200 ppm (Spodoptera littoralis; [2]) | mortality at 200 ppm (Thrips tabaci; [3]) | percent effect (mortality or growth inhibition) at 200 ppm (Plutella xylostella) | mortality at 200 ppm (Myzus persicae; [4]) | percent effect (mortality or growth inhibition) at 200 ppm (Euschistus heros)

CCS(=O)(=O)N1CC(NC(=O)c2ccc(C3=NO[C@@](c4cc(Cl)c(Cl)c(Cl)c4)(C(F)(F)F)C3)cc2Br)CO1 (stereo partly drawn) [Compound A43, 2-bromo-N-(2-ethylsulfonylisoxazolidin-4-yl)-4-[(5S)-5-(3,4,5-trichlorophenyl)-5-(trifluoromethyl)-4H-isoxazol-3-yl]benzamide]
≥ 80%: mortality at 200 ppm (Tetranychus urticae; [1]) | percent effect (mortality or growth inhibition) at 200 ppm (Diabrotica balteata) | mortality at 200 ppm (Spodoptera littoralis; [2]) | mortality at 200 ppm (Thrips tabaci; [3]) | percent effect (mortality or growth inhibition) at 200 ppm (Plutella xylostella) | mortality at 200 ppm (Myzus persicae; [4]) | percent effect (mortality or growth inhibition) at 200 ppm (Euschistus heros)
